In patent US6340758B1, “Conformationally semi-constrained quinoxaline 2,3-diones as neuroprotective agents” (Warner-Lambert Company, priority 1997, dated 2002):

Question: With `Cc1c([N+](=O)[O-])cc2[nH]c(=O)c(=O)[nH]c2c1-c1nnc(N)o1` [Example 1, 5-(5-Amino-[1,3,4]oxadiazol-2-yl)-6-methyl-7-nitro-1,4-dihydro-quinoxaline-2,3-dione] as the compound, how does the melting point read?
Answer: 205 to 206 °C
